Tests used:
Assay type in all cases: functional
SNB-75 [1] = experiment: Growth inhibition of human SNB75 cells assessed as cell growth at 0.1 uM incubated for 48 hrs by sulforhodamine B assay relative to control; conditions: SNB-75, 48 h, read-out: Activity
DU-145 = experiment: Growth inhibition of human DU145 cells assessed as cell growth at 1 uM incubated for 48 hrs by sulforhodamine B assay relative to control; conditions: DU-145, 48 h, read-out: Activity
NCI-H522 = experiment: Growth inhibition of human NCI-H522 cells assessed as cell growth at 100 uM incubated for 48 hrs by sulforhodamine B assay relative to control; conditions: NCI-H522, 48 h, read-out: Activity
HCC 2998 = experiment: Growth inhibition of human HCC2998 cells assessed as cell growth at 0.1 uM incubated for 48 hrs by sulforhodamine B assay relative to control; conditions: HCC 2998, 48 h, read-out: Activity
NCI/ADR-RES = experiment: Growth inhibition of human NCI-ADR-RES cells incubated for 48 hrs by sulforhodamine B assay
T47D = experiment: Growth inhibition of human T47D cells incubated for 48 hrs by sulforhodamine B assay
CCRF-CEM = experiment: Growth inhibition of human CCRF-CEM cells assessed as cell growth at 1 uM incubated for 48 hrs by sulforhodamine B assay relative to control; conditions: read-out: Activity
UACC-62 [2] = experiment: Growth inhibition of human UACC62 cells assessed as cell growth at 0.1 uM incubated for 48 hrs by sulforhodamine B assay relative to control; conditions: UACC-62, 48 h, read-out: Activity
U-251 [3] = experiment: Growth inhibition of human U251 cells assessed as cell growth at 100 uM incubated for 48 hrs by sulforhodamine B assay relative to control; conditions: U-251, 48 h, read-out: Activity
SF-539 = experiment: Growth inhibition of human SF539 cells assessed as cell growth at 100 uM incubated for 48 hrs by sulforhodamine B assay relative to control; conditions: SF-539, 48 h, read-out: Activity
SK-OV-3 [4] = experiment: Growth inhibition of human SKOV3 cells assessed as cell growth at 100 uM incubated for 48 hrs by sulforhodamine B assay relative to control; conditions: SK-OV-3, 48 h, read-out: Activity
IGROV-1 = experiment: Growth inhibition of human IGROV1 cells assessed as cell growth at 0.01 uM incubated for 48 hrs by sulforhodamine B assay relative to control; conditions: IGROV-1, 48 h, read-out: Activity
NCI-H322M = experiment: Growth inhibition of human NCI-H322M cells assessed as cell growth at 1 uM incubated for 48 hrs by sulforhodamine B assay relative to control; conditions: read-out: Activity
SR = experiment: Growth inhibition of human SR cells assessed as cell growth at 1 uM incubated for 48 hrs by sulforhodamine B assay relative to control; conditions: read-out: Activity
M14 = experiment: Growth inhibition of human M14 cells assessed as cell growth at 0.1 uM incubated for 48 hrs by sulforhodamine B assay relative to control; conditions: M14, 48 h, read-out: Activity
MOLT-4 = experiment: Growth inhibition of human MOLT4 cells assessed as cell growth at 0.01 uM incubated for 48 hrs by sulforhodamine B assay relative to control; conditions: MOLT-4, 48 h, read-out: Activity
NCI-H460 = experiment: Growth inhibition of human NCI-H460 cells incubated for 48 hrs by sulforhodamine B assay; conditions: NCI-H460, 48 h
CAKI-1 = experiment: Growth inhibition of human Caki1 cells assessed as cell growth at 100 uM incubated for 48 hrs by sulforhodamine B assay relative to control; conditions: CAKI-1, 48 h, read-out: Activity
COLO 205 = experiment: Growth inhibition of human COLO205 cells assessed as cell growth at 1 uM incubated for 48 hrs by sulforhodamine B assay relative to control; conditions: COLO 205, 48 h, read-out: Activity
PC-3 = experiment: Growth inhibition of human PC3 cells assessed as cell growth at 100 uM incubated for 48 hrs by sulforhodamine B assay relative to control; conditions: PC-3, 48 h, read-out: Activity
Malme-3M = experiment: Growth inhibition of human MALME-3M cells assessed as cell growth at 0.1 uM incubated for 48 hrs by sulforhodamine B assay relative to control; conditions: read-out: Activity
UACC-62 [5] = experiment: Growth inhibition of human UACC62 cells assessed as cell growth at 100 uM incubated for 48 hrs by sulforhodamine B assay relative to control; conditions: UACC-62, 48 h, read-out: Activity
SNB-75 [6] = experiment: Growth inhibition of human SNB75 cells assessed as cell growth at 100 uM incubated for 48 hrs by sulforhodamine B assay relative to control; conditions: SNB-75, 48 h, read-out: Activity
SF-295 = experiment: Growth inhibition of human SF295 cells assessed as cell growth at 0.01 uM incubated for 48 hrs by sulforhodamine B assay relative to control; conditions: SF-295, 48 h, read-out: Activity
NCI-H23 = experiment: Growth inhibition of human NCI-H23 cells incubated for 48 hrs by sulforhodamine B assay; conditions: NCI-H23, 48 h
SK-OV-3 [7] = experiment: Growth inhibition of human SKOV3 cells assessed as cell growth at 0.1 uM incubated for 48 hrs by sulforhodamine B assay relative to control; conditions: SK-OV-3, 48 h, read-out: Activity
UACC-257 = experiment: Growth inhibition of human UACC257 cells assessed as cell growth at 1 uM incubated for 48 hrs by sulforhodamine B assay relative to control; conditions: UACC-257, 48 h, read-out: Activity
MDA-MB-468 = experiment: Growth inhibition of human MDA-MB-468 cells incubated for 48 hrs by sulforhodamine B assay; conditions: MDA-MB-468, 48 h
RXF 393 [8] = experiment: Growth inhibition of human RXF393 cells assessed as cell growth at 0.1 uM incubated for 48 hrs by sulforhodamine B assay relative to control; conditions: RXF 393, 48 h, read-out: Activity
RXF 393 [9] = experiment: Growth inhibition of human RXF393 cells assessed as cell growth at 100 uM incubated for 48 hrs by sulforhodamine B assay relative to control; conditions: RXF 393, 48 h, read-out: Activity
U-251 [10] = experiment: Growth inhibition of human U251 cells incubated for 48 hrs by sulforhodamine B assay; conditions: U-251, 48 h
[11] = read-out: LC50 (the source's name)
[12] = read-out: pLC50 (the source's name) (converted)

Structure (SMILES): c1ccc2[nH]c(-c3ccc(-c4nccc5c4[nH]c4ccccc45)cc3)nc2c1
- growth at 0.1 µM (SNB-75 [1]): 78%
- growth at 1 µM (DU-145): 97%
- growth at 100 µM (NCI-H522): 46%
- growth at 0.1 µM (HCC 2998): 95%
- GI50 (NCI/ADR-RES; read-out: GI50): 3.5 µM
- CC50 (NCI/ADR-RES; [11]): > 1 µM
- GI50 (NCI/ADR-RES; read-out: pGI50 (converted)): 3.47 µM
- CC50 (NCI/ADR-RES; read-out: pLC50 (converted)): > 100 µM
- TGI (NCI/ADR-RES; read-out: pTGI (converted)): 15.1 µM
- GI50 (T47D; read-out: GI50): 2.02 µM
- CC50 (T47D; [11]): 8.34 µM
- TGI (T47D; read-out: TGI): 6.19 µM
- GI50 (T47D; read-out: pGI50 (converted)): 2.04 µM
- CC50 (T47D; [12]): 83.2 µM
- TGI (T47D; read-out: pTGI (converted)): 6.17 µM
- growth at 1 µM (CCRF-CEM): 103%
- growth at 0.1 µM (UACC-62 [2]): 91%
- growth at 100 µM (U-251 [3]): 75%
- growth at 100 µM (SF-539): 70%
- growth at 100 µM (SK-OV-3 [4]): 86%
- growth at 0.01 µM (IGROV-1): 99%
- growth at 1 µM (NCI-H322M): 96%
- growth at 1 µM (SR): 88%
- growth at 0.1 µM (M14): 98%
- growth at 0.01 µM (MOLT-4): 96%
- GI50 (NCI-H460; read-out: GI50): 3.03 µM
- CC50 (NCI-H460; [11]): > 1 µM
- TGI (NCI-H460; read-out: TGI): 9.8 µM
- GI50 (NCI-H460; read-out: pGI50 (converted)): 3.02 µM
- CC50 (NCI-H460; [12]): > 100 µM
- TGI (NCI-H460; read-out: pTGI (converted)): 9.77 µM
- growth at 100 µM (CAKI-1): 76%
- growth at 1 µM (COLO 205): 93%
- growth at 100 µM (PC-3): 71%
- growth at 0.1 µM (Malme-3M): 94%
- growth at 100 µM (UACC-62 [5]): 57%
- growth at 100 µM (SNB-75 [6]): 84%
- growth at 0.01 µM (SF-295): 90%
- CC50 (NCI-H23; [11]): 8.7 µM
- GI50 (NCI-H23; read-out: pGI50 (converted)): 3.47 µM
- CC50 (NCI-H23; [12]): 87.1 µM
- TGI (NCI-H23; read-out: pTGI (converted)): 17.8 µM
- growth at 0.1 µM (SK-OV-3 [7]): 98%
- growth at 1 µM (UACC-257): 96%
- GI50 (MDA-MB-468; read-out: GI50): 2.52 µM
- CC50 (MDA-MB-468; [11]): 4.97 µM
- TGI (MDA-MB-468; read-out: TGI): 6.62 µM
- GI50 (MDA-MB-468; read-out: pGI50 (converted)): 2.51 µM
- CC50 (MDA-MB-468; [12]): 50.1 µM
- TGI (MDA-MB-468; read-out: pTGI (converted)): 6.61 µM
- growth at 0.1 µM (RXF 393 [8]): 108%
- growth at 100 µM (RXF 393 [9]): 68%
- GI50 (U-251 [10]; read-out: GI50): 2.74 µM
- LC50 (U-251 [10]; read-out: LC50): 4.05 µM
- TGI (U-251 [10]; read-out: TGI): 7.83 µM
- GI50 (U-251 [10]; read-out: pGI50 (converted)): 2.75 µM
- LC50 (U-251 [10]; read-out: pLC50 (converted)): 40.7 µM
- TGI (U-251 [10]; read-out: pTGI (converted)): 7.76 µM
